Measured values reported in patent US20140363406A1, “ESTROGEN METABOLITE LEVELS AND CYP1B1 POLYMORPHISMS IN LUNG CANCER DIAGNOSIS, PROGNOSIS, AND RISK ASSESSMENT” (Institute for Cancer Research d/b/a The Research Institute …, priority 2012, published 2014).

Biological target: T1, CYP1B1 (Mus musculus, UniProt Q64429)
T1 sequence (Q64429 1-543): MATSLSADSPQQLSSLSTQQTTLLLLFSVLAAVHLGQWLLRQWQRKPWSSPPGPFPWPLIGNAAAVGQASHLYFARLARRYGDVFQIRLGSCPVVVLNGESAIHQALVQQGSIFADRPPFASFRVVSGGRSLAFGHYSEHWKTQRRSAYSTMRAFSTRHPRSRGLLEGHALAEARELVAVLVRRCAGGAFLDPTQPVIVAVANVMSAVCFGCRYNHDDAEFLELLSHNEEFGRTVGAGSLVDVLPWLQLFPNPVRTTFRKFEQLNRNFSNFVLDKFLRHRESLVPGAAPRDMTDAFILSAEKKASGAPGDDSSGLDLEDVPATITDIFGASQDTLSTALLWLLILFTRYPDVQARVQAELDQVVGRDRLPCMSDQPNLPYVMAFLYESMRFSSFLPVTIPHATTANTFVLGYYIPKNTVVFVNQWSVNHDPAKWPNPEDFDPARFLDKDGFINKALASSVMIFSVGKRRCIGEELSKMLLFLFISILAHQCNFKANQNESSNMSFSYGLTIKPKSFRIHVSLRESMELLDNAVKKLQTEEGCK
Test: Impact of Cyp1b1 deletion on lung estrogen/EM levels (Cyp1b1-KO vs Cyp1b1-WT 129SvJ mice), LC-MS2
Method: Animals. […] Smoke exposures were performed on female C57/B6 mice (1.5-2 years old) carrying a human APOE*4 transgene that were part of an atherosclerosis study at Duke University and fed a high-fat diet TD.88051. Animals had free access to food and water. All animal experimentation was approved by the Institutional Animal Care and Use Committees at Fox Chase Cancer Center and Duke University.
Genotyping. PCR-based genotyping of Cyp1b1 wild-type (Cyp1b1-WT) and knockout (Cyp1b1-K0) mice was performed using Choice Taq Blue DNA Polymerase Master mix (Denville Scientific, South Plainfield, N.J.) according to the following protocol: Wild-type primers—[…]
Lung tissue collection. Following euthanasia, the lungs were perfused by intracardiac injection with 30 ml phosphate buffered saline to flush out the blood. Perfused tissues were snap-frozen in liquid nitrogen and stored at −80° C. The accessory lobe of the lung was reserved for RNA extraction, whereas the remaining lobes were processed for estrogen metabolite analyses.
Sample preparation. Lung tissue samples (0.1-0.2 g per sample) from Cyp1b1-WT or Cyp1b1-KO mice (female and male, 12-14 weeks of age, n=4-5 per group) were thawed at room temperature, minced with scissors and transferred into 1.5 ml Eppendorf tubes. […] The tissue was homogenized on ice using a Tissue Tearor™ (Cole-Parmer, Vernon Hills, Ill.) at low and high speeds in two consecutive 15 s increments for a total of 30 s, and further sonicated on ice (five cycles of 10 s pulses with 10 s breaks between pulses). Eight milliliters of ethanol:acetone and […] each of stable isotope-labeled estrogen internal standards (0.32 ng/ml working standard solutions) were added to each tissue homogenate. The mixture was incubated on a rotator at room temperature for 1 h and centrifuged at 3000 ×g for 30 min. The ethanol:acetone tissue extract was transferred to a clean glass tube and dried under nitrogen gas at 60° C. for 60 min (Reacti-Vap III™, Pierce, Rockford, Ill.). The residue was redissolved in 4 ml of methanol, vortexed for 1 min, chilled at -80° C. for 1 h, returned to room temperature and centrifuged at 3000 × g for 20 min. The methanolic phase was transferred to a clean glass tube and dried under nitrogen gas. The residue was redissolved in 100 μl of ethanol and vortexed briefly. This step was followed by the addition of 1.5 ml of 100 mM sodium acetate buffer, pH 4.6, and 5 ml of dichloromethane to the residue and incubation at room temperature on a rotator for 30 min.
The extract was chilled at −80° C. for 10 min, returned to room temperature and centrifuged at 3000 × g for 20 min. The dichloromethane phase was transferred to a clean tube and dried. To each dried sample, 40 μl of 0.1 M sodium bicarbonate buffer, pH 9.0, and 40 μl of dansyl chloride solution (1 mg/ml in acetone) were added. After vortexing for 10 s, samples were heated at 70° C. (Reacti-Therm III™ Heating Module, Pierce, Rockford, Ill.) for 10 min to form the EM and SI-EM dansyl derivatives. All samples were centrifuged at 3000 ×g for 20 min and analyzed using LC-M5^2. The efficiency of extracting estrogen and its metabolites from the tissue cannot be measured accurately because a known amount of each metabolite cannot be placed in the tissue prior to extraction. Furthermore, the amount of estrogens/EM present at baseline is unknown.
LC-MS^2 analysis was performed using a Shimadzu Prominence UFLC system (Shimadzu Scientific Instruments, Columbia, Md.) coupled with a TSQ™ Quantum Ultra triple quadrupole mass spectrometer (Thermo Electron, San Jose, Calif.). The LC separation was carried out on a 50 mm long×2 mm […] column packed with 2.5 μm Synergi Hydro-RP particles (Phenomenex, Torrance, Calif.) maintained at 40° C. A 20 μl aliquot of each sample was injected onto the column.

C[C@]12CC[C@@H]3c4cc(O)c(O)cc4CC[C@H]3[C@@H]1CCC2=O [2-OHE1, 2-hydroxyestrone]
percentage of total estrogen, male versus female (in words) (Cyp1b1-KO mice): no significant difference
increase in lung level in Cyp1b1-KO compared with WT controls (females): 3 fold
increase in lung level in Cyp1b1-KO compared with WT controls (males): 1.7 fold

C[C@]12CC[C@@H]3c4ccc(O)c(O)c4CC[C@H]3[C@@H]1CCC2=O [4-OHE1, 4-hydroxyestrone]
decrease in lung level by deletion of Cyp1b1 (female Cyp1b1-KO vs WT): 21 fold
lung level in Cyp1b1-KO as % of WT controls (females): 4.7%
decrease in lung level by deletion of Cyp1b1 (male Cyp1b1-KO vs WT): 14 fold
lung level in Cyp1b1-KO as % of WT controls (males): 7.4%

C[C@]12CC[C@@H]3c4ccc(O)c(O)c4CC[C@H]3[C@@H]1CC[C@@H]2O [4-OHE2, 4-hydroxyestradiol]
lung level reduced in Cyp1b1-KO compared with Cyp1b1-WT controls (both sexes): ~50%
lung level reduced in Cyp1b1-KO compared with Cyp1b1-WT controls (females): 60%
lung level reduced in Cyp1b1-KO compared with Cyp1b1-WT controls (males): 56%
